Values joined by “and” are separate entries in the source; they are usually repeats but may differ in a detail not shown here. Equal values may be shown once.
Tests used:
[1] = Metabolic effect of adropin^34-76 administration in mice; type: in vivo, mouse; conditions: delivered as two 45 nmol/kg injections
Source text: (§1) Using mice, the Inventors have shown that administration of adropin^34-76, in doses as low as 90 nmol/kg/day, delivered as two 45 nmol/kg injections, can be effective in producing changes in metabolism. Dose as high as 900 nmol/kg/d are well tolerated in mice. While the doses required for a desired clinical effect in humans is expected to vary between patients, the 90 nmol/kg dose administered by subcutaneous, intramuscular, or intravenous injection, either once or twice a day, may represent a preferred treatment protocol. It is anticipated that the treatments would be administered daily, although long-acting formulations involving weekly injections are envisaged. The optimum dose and frequency for a particular subject may be determined by the patient's treating physician, based on the patient's cognitive response. It is anticipated that adropin therapy may or may not improve a subject's cognitive function relative to current baseline, however adropin therapy may result in significant delays in the advancement of the disease. Improvement may manifest as a significant delay or a reduced rate of subsequent cognitive decline.

[2] = Body weight and survival during 4 weeks of adropin^34-76 injections; type: in vivo; conditions: group 1 (adropin^34-76, 90 nmol/kg/day ip), 15 mice
Experimental: (§2) To examine the effects of endogenous adropin on a subject's cognitive ability, 34 male C57BL/6J (B6) mice, aged 18 months, were treated with exogenous adropin^34-76. Mice were purchased from The Jackson Laboratory (Bar Harbor, Me.). After acclimation for 1 month, mice were separated into two weight matched groups of 15 mice: Group 1 adropin^34-76 treatment group and Group 2 saline vehicle control.
(§3) The mice were administered a single intraperitoneal injection (volume 100 μl) each morning (0900h) for 4 weeks. Group 1 was administered adropin^34-76 at a dose of 90 nmol/kg/day. Group 2 was administered saline. The peptide was purchased from Neoscientific Inc. Behavioral testing began after 2 weeks of injections. Injections continued though testing until 4 weeks.

[3] = test system: Male C57BL/6J B6 mice subjected to TBI; assay: T-maze retention after mild closed-head traumatic brain injury (TBI); type: in vivo, mouse
Experimental: FIG. 16 illustrates the results of T-maze data from adropin treated and adropin transgenic mice after traumatic brain injury. SHAM are mice handled but not subject to injury. Veh are mice treated with 0.9% saline. […] (A) Mice used were males, aged 10-14 weeks, purchased from the Jackson laboratory. (B) “TG” are adropin transgenic mice. “WT” are wild-type littermates. All mice were males aged 9-12 months.
Memory retention and acquisition were assessed using an aversive T-maze and novel objective recognition, as previously described (Farr et al., (2016) J Alzheimers Dis.; 54(4):1339-1348). Briefly, the T-maze consists of a black plastic alley with a start box at one end and two goal boxes at the other. An electrifiable floor of stainless steel rods run throughout the maze to deliver a foot-shock using a scrambled grid floor shocker (Model E13-08, Coulbourn Instruments, Whitehall, Pa.). Mice are not permitted to explore the maze prior to training. A block of training trials begins when mice are placed in the start box. The guillotine door is raised and a cue buzzer sounded simultaneously (doorbell type, at 55 dB); 5s later a mild aversive foot-shock is applied with an intensity of 0.35 mA. The arm of the maze entered on the first trial is designated “incorrect” and the mild foot-shock continued until the mouse enters the other goal box, which in all subsequent trials is designated “correct” for each mouse. Mice are trained until they made one active avoidance, with an inter-trial interval of 30-35s. The number of trials to make one active avoidance is the measure of acquisition. […]
(§4) TBI PROCEDURE: Mice were exposed to mild closed-head concussive TBI. […] Adequate anesthesia was determined by the lack of both the corneal reflex and toe pinch reflex. […] Following Isoflurane anesthesia and the weight drop procedure, mouse respiration, heart rate and righting reflex was monitored to ensure recovery. The righting reflex time was recorded for each mouse. […] When the mouse moves from a supine to a prone position, i.e., rights itself, the time will be recorded. […]

[4] = test system: Hippocampal gene expression; assay: Hippocampal gene expression (cytokines, growth factors) after TBI; type: in vivo, mouse; conditions: TBI+Adr vs TBI+veh and Sham
Experimental: FIG. 18 illustrates Hippocampal gene expression. There are increases in the expression of cytokines (significant for IL16, CCI2, IL17) in the hippocampus of TBI-veh mice versus uninjured (sham) controls TBI also appears to result in changes in expression of growth factors (BDNF, VEGF). In most cases, these changes were attenuated by adropin treatment.
Gene expression was assessed using qRT-PCR as previously described. Hippocampal and cortical tissue samples were dissected from fresh brains and snap frozen brains on dry-ice cold isopentane. Total RNA was extracted using Trizol (Invitrogen, Life Technologies) and treated with a DNAfree kit (Ambion, Life Technologies). […] Quantitative PCR was performed in 96-well plates using Taqman gene expression and QuantStudio 7 Detection Systems (Applied Biosystems, Life Technologies); 36B4 was used as the reference gene.
as §4

[5] = test system: subjects with diet-induced obesity; conditions: Kumar et al. 2008, Gao et al. 2014, 2015; cited from earlier work
[6] = test system: male C57BL/6J (B6) mice, aged 18 months; assay: Novel Object Recognition test, aged mice treated with adropin^34-76; type: in vivo, mouse
Experimental: For the novel object recognition task, mice are habituated to an empty apparatus, a 58×66×11-cm white plastic box, for 5 min a day for 3 consecutive days prior to entry of objects. On the first day of training, mice are placed in the testing apparatus with two identical objects (A and B). 24h later the animal is reintroduced to the arena but this time one of the original objects is removed and a new object (C). Total time spent exploring each of the two objects is recorded. Anxiety will be assessed using open field and elevated plus maze tests. The experimental apparatus consists of a central platform, two open arms and two equal-sized closed arms opposite to each other. The test consisted of placing a mouse in the central platform facing an enclosed arm and allowing it to freely explore the maze for 5 min. The number of entries into the open and closed arms and the time spent in open arms was measure by an observer blind to treatment
as §2, §3
A non-amnesic subject will spend more time exploring the novel object than the familiar one. When adropin treated and vehicle treated mice were subjected to the Novel Object Recognition test, adropin treated mice spent more time exploring the novel object (FIG. 11, Table 1)

plasma cytokine levels = assay: Plasma cytokine levels after TBI; type: in vivo, mouse; conditions: TBI followed by adropin vs TBI followed by saline
Experimental: FIG. 17 illustrates plasma cytokine levels of mice that were: uninjured, subjected to TBI, and subjected to TBI followed by adropin injections.
TBI PROCEDURE: Mice were exposed to mild closed-head concussive TBI. Mice were anesthetized with isoflurane 2-4% and placed under a device consisting of a Plexiglas tube (inner diameter 13 mm) placed vertically over the animal's head. Adequate anesthesia was determined by the lack of both the corneal reflex and toe pinch reflex. Each mouse received 90 sec Isoflurane anesthesia in the induction chamber. The injury was induced by dropping a 25-gm acrylic weight from 80 cm height down the Plexiglas tube, striking the skull. This weight was chosen based upon literature using this type of device (Tweedie et al. (2016) PLoS One. 11(6):e0156493; Zohar et al. (2011) Acta Neurobiol Exp. 71:36-45). […] Following Isoflurane anesthesia and the weight drop procedure, mouse respiration, heart rate and righting reflex was monitored to ensure recovery. The righting reflex time was recorded for each mouse. […] When the mouse moves from a supine to a prone position, i.e., rights itself, the time will be recorded. […] One hour following the weight drop injury four reflexes were checked and recorded: the corneal reflex in both eyes, hindleg extension when held by the tail, startle response from a puff of air, and the ability to walk with a normal gate. […]

[7] = test system: male C57BL/6J (B6) mice, aged 18 months; assay: Aversive T-maze retention (retest after 7 days), aged mice treated with adropin^34-76; type: in vivo, mouse; conditions: 90 nmol/kg/day ip
Experimental: (§5) Memory retention and acquisition were assessed using an aversive T-maze and novel objective recognition, as previously described (Farr et al., (2016) J Alzheimers Dis.; 54(4):1339-1348). Briefly, the T-maze consists of a black plastic alley with a start box at one end and two goal boxes at the other. An electrifiable floor of stainless steel rods run throughout the maze to deliver a foot-shock using a scrambled grid floor shocker (Model E13-08, Coulbourn Instruments, Whitehall, Pa.). Mice are not permitted to explore the maze prior to training. A block of training trials begins when mice are placed in the start box. The guillotine door is raised and a cue buzzer sounded simultaneously (doorbell type, at 55 dB); 5s later a mild aversive foot-shock is applied with an intensity of 0.35 mA. The arm of the maze entered on the first trial is designated “incorrect” and the mild foot-shock continued until the mouse enters the other goal box, which in all subsequent trials is designated “correct” for each mouse. Mice are trained until they made one active avoidance, with an inter-trial interval of 30-35s. The number of trials to make one active avoidance is the measure of acquisition. Retention is tested 7d later, with training continued until the criterion of making five active avoidances in six consecutive trials is achieved. The number of trials needed to reach this criterion is the measure of retention (Butler et al., (2012) The Journal of clinical endocrinology and metabolism; 97(10):3783-3791; Wong et al., (2014) The Journal of biological chemistry; 289(37):25976-25986).
as §2, §3
(FIG. 12, Table 3) Mice were retested in the maze after 7 days and Adropin treated mice retained learned memories and complete the maze in lets time.

[8] = test system: male C57BL/6J (B6) mice, aged 18 months; assay: Aversive T-maze acquisition, aged mice treated with adropin^34-76; type: in vivo, mouse; conditions: 90 nmol/kg/day ip
Experimental: as §5, §2, §3
Mice prepared with adropin or placebo in Example 3 were subjected to the Acquisition T-maze test.

[9] = Tolerability of adropin^34-76 in mice; type: in vivo, mouse
Source text: as §1

[10] = n = 14, SEM in next cell, P <0.0001 vs vehicle

**Q.** For “adropin^34-76 (CHSRSADVDSLSESSPNSSPGPCPEKAPPPQKPSHEGSYLLQP; Adropin; UniProt Q6UWT2 34-76, looked up, fragment)”, which “dose effective in producing changes in metabolism” value [1] is on record?
**A.** ≥ 90 nmol/kg/day

**Q.** And the deaths during treatment [2]?
**A.** One mouse in group 1 died

**Q.** And the “deficits in spatial learning and memory after TBI” value ([3]; 450 nmol/kg iv at 1 h and 450 nmol/kg ip at 24 h post-injury, male B6 mice)?
**A.** exhibited protection from deficits in spatial learning and memory

**Q.** And the “T-maze retention after TBI, compared with uninjured vehicle treated controls” value ([3]; TBI+Adro vs SHAM+Veh)?
**A.** not significantly different

**Q.** And the “T-maze retention after TBI, compared with TBI followed by saline” value ([3]; TBI+Adro vs TBI+Veh, injections 1 h and 24 h post-injury, ** 99% confidence)?
**A.** significantly improved

**Q.** What about the “TBI-induced changes in hippocampal cytokine and growth factor expression, in words” value [4] of the same substance?
**A.** these changes are attenuated in most cases

**Q.** And the “metabolic changes after intraperitoneal injection, in words” value [5]?
**A.** metabolic changes suggesting improvements in glucose control and reduced risk for type 2 diabetes

**Q.** And the “Novel Object Recognition, result in words vs vehicle treated mice” value ([6]; 90 nmol/kg/day ip)?
**A.** improved cognitive performance

**Q.** And the “Novel Object Recognition, difference between means (Adropin vs. Vehicle)” value ([6]; 90 nmol/kg/day ip, vehicle mean 43.90)?
**A.** 14.99

**Q.** What about the “Novel Object Recognition, mean (Adropin)” value ([6]; n = 15, SEM in next cell, P 0.0183 vs vehicle, unpaired t test, 90 nmol/kg/day ip) of the same substance?
**A.** 58.88

**Q.** And the “Novel Object Recognition test, 24 Hour delay % Novel Object (individual mice)” value ([6]; one value per mouse, 90 nmol/kg/day ip for 4 weeks, testing after 2 weeks)?
**A.** 55.56% and 77.50% and 66.67% and 79.10% and 51.06% and 100.00% and 51.61% and 46.43% and 42.86% and 53.06% and 37.50% and 40.74% and 64.58% and 62.50% and 58.82%

**Q.** And the “plasma cytokine levels after TBI, in words” value (plasma cytokine levels)?
**A.** possible reduction in inflammatory responses to TBI

**Q.** What about the “T-maze Retention, difference between means (Adropin vs. Vehicle)” value ([7]; vehicle mean 9.200) of the same substance?
**A.** −2.343

**Q.** And the “T-maze Retention, mean (Adropin)” value [7, 10]?
**A.** 6.857

**Q.** And the “T-maze Retention (individual mice)” value ([7]; one value per mouse, trials to five active avoidances in six consecutive trials, 7 d later)?
**A.** 7. (7×) and 8. and 6. (5×) and 9.

**Q.** And the “T-maze retention, result in words vs vehicle” value ([7]; retested after 7 days)?
**A.** superior performance

**Q.** What about the “T-maze acquisition, result in words vs placebo treated mice” value [8] of the same substance?
**A.** performed better

**Q.** What about the “T-maze acquisition, difference between means (Adropin vs. Vehicle)” value ([8]; vehicle mean 10.80) of the same substance?
**A.** −3.443

**Q.** And the “T-maze acquisition, mean (Adropin)” value [8, 10]?
**A.** 7.357

**Q.** And the “T-maze acquisition (individual mice)” value ([8]; one value per mouse, number of trials to make one active avoidance)?
**A.** 7. (5×) and 8. (4×) and 9. (2×) and 6. (3×)

**Q.** And the dose well tolerated [9]?
**A.** ≤ 900 nmol/kg/day
